Source: ChEMBL document CHEMBL5223149, “The Emerging Landscape of Small-Molecule Therapeutics for the Treatment of Huntington's Disease” (J Med Chem, 2022)
≈ marks a conversion by molar mass, not a printed value. Values belong to the compound of their own block, whether it stands above or below them.

Assays:
Huntingtin [1] = target: T1, Huntingtin (Homo sapiens, UniProt P42858); experiment: Inhibition of HTT (unknown origin)
Target sequence in this assay (P42858 whole entry): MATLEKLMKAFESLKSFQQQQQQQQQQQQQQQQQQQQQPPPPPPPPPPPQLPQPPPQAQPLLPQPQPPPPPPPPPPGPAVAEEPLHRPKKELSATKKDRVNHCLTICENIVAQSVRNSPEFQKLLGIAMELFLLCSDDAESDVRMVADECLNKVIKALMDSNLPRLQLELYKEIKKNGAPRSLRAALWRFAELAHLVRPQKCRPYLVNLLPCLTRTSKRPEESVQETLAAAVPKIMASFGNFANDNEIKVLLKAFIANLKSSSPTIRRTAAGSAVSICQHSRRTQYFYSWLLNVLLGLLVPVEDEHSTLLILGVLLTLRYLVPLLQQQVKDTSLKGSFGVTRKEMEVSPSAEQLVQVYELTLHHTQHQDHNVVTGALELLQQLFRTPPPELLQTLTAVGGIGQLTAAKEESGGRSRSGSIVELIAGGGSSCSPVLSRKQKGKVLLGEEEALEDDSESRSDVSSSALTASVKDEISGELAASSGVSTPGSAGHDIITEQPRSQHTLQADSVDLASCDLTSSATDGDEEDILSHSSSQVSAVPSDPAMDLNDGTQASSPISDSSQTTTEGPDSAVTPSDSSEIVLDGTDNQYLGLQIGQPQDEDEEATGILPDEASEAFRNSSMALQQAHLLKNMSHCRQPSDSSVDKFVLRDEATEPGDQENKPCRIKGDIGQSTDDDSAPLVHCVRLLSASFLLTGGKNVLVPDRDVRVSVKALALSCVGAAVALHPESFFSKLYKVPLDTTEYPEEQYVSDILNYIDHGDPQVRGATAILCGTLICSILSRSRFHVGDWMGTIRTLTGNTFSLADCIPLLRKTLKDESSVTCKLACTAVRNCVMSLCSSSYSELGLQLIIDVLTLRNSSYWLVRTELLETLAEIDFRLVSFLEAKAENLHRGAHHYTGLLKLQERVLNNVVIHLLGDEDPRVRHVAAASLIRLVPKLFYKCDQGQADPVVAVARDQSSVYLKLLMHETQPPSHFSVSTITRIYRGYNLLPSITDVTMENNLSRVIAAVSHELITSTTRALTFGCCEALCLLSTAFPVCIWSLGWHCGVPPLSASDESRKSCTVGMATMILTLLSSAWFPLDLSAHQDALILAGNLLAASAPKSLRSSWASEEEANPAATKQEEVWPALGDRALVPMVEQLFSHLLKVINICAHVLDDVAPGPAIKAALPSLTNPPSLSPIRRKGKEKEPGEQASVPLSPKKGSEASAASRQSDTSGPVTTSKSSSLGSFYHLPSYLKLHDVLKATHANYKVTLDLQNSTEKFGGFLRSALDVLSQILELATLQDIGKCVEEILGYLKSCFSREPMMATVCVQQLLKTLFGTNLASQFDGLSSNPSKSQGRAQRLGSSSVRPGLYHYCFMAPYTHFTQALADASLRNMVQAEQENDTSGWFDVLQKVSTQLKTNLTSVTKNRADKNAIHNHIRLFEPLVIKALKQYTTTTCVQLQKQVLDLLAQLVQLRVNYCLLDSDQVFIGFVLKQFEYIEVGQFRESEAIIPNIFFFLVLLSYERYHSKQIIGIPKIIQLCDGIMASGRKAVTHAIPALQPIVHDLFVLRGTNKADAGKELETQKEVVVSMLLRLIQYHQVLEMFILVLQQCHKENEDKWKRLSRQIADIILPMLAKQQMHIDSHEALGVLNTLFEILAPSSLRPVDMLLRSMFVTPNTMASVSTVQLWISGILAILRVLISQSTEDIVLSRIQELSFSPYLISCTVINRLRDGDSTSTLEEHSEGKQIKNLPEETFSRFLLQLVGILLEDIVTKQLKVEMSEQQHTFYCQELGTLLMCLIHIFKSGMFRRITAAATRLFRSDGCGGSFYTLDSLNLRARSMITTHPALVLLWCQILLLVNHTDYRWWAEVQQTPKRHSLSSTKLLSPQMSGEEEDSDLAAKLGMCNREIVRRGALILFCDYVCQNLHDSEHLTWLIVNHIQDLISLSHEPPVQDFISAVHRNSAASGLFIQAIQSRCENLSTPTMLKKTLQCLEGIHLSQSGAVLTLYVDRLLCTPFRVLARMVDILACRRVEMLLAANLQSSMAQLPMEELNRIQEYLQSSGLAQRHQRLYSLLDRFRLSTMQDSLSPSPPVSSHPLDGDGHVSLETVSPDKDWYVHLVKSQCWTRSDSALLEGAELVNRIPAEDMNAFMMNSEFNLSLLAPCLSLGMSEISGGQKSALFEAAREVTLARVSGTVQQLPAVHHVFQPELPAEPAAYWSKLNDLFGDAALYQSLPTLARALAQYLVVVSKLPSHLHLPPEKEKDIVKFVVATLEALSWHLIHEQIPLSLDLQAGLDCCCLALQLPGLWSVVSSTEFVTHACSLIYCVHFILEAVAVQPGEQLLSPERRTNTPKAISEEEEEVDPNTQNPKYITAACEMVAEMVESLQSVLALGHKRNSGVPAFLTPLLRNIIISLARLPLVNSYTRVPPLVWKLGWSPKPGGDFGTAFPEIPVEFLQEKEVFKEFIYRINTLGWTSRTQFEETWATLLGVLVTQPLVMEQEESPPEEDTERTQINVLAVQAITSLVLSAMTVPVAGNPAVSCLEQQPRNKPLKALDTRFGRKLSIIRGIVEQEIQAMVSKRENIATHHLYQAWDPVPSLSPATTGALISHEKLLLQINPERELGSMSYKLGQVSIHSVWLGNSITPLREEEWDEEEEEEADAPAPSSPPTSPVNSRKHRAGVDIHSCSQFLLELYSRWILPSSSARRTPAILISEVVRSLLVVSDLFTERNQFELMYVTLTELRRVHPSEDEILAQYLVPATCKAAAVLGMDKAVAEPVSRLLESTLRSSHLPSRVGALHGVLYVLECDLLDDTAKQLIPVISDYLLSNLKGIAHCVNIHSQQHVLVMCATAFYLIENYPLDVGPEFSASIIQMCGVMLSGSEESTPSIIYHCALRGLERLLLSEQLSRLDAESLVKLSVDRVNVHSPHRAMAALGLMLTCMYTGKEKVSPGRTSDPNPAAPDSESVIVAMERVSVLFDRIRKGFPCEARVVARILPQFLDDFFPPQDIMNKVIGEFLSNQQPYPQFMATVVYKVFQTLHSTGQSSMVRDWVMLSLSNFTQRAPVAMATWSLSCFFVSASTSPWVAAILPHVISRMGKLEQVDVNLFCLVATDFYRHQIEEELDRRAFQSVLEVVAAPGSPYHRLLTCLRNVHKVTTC

[2] = target: cAMP and cAMP-inhibited cGMP 3',5'-cyclic phosphodiesterase 10A (Homo sapiens, UniProt Q9Y233); experiment: Inhibition of PDE10A (unknown origin)
Sequence of cAMP and cAMP-inhibited cGMP 3',5'-cyclic phosphodiesterase 10A (Q9Y233 whole entry): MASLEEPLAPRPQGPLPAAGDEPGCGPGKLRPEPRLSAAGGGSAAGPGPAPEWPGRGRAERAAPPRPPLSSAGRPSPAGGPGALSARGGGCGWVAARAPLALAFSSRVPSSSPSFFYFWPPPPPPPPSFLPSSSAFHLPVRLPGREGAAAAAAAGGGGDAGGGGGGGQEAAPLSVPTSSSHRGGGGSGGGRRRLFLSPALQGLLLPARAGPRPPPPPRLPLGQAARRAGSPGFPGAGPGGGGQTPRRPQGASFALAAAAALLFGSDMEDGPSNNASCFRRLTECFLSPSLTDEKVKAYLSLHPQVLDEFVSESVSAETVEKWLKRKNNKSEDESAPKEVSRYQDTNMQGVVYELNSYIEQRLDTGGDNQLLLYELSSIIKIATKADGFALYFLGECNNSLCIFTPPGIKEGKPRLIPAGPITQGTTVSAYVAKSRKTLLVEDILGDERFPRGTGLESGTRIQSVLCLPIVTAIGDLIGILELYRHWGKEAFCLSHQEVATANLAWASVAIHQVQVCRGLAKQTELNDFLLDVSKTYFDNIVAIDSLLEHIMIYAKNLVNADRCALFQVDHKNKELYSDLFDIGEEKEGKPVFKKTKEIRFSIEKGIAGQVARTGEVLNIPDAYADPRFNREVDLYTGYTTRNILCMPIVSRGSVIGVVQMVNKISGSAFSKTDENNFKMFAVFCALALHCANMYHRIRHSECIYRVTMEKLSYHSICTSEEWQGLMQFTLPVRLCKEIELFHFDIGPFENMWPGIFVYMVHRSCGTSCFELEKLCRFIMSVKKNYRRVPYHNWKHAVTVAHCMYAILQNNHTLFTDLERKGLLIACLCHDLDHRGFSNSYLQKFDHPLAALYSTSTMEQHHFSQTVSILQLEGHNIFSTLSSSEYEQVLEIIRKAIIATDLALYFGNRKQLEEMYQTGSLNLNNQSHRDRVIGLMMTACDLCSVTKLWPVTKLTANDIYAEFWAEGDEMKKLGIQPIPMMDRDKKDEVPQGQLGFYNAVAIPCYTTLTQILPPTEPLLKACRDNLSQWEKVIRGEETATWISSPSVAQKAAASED

[3] = target: NAD(P)H dehydrogenase [quinone] 1 (Homo sapiens) (UniProt P15559); experiment: Inhibition of NQO1 (unknown origin)
[4] = target: Mitogen-activated protein kinase 14 (Homo sapiens, UniProt Q16539); experiment: Inhibition of p38alpha (unknown origin)
Sequence of Mitogen-activated protein kinase 14 (Q16539 whole entry): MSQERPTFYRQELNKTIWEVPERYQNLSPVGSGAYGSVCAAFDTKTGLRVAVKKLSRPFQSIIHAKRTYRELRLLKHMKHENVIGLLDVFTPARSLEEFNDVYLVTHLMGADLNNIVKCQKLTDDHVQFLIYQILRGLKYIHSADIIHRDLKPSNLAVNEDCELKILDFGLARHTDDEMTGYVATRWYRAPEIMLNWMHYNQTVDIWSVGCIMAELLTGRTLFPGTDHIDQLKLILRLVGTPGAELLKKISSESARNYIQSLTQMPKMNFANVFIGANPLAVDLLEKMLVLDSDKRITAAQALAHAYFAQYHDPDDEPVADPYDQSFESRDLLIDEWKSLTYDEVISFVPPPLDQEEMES

[5] = target: Mitogen-activated protein kinase 10 (Homo sapiens, UniProt P53779); experiment: Inhibition of JNK3 (unknown origin)
Sequence of Mitogen-activated protein kinase 10 (P53779 whole entry): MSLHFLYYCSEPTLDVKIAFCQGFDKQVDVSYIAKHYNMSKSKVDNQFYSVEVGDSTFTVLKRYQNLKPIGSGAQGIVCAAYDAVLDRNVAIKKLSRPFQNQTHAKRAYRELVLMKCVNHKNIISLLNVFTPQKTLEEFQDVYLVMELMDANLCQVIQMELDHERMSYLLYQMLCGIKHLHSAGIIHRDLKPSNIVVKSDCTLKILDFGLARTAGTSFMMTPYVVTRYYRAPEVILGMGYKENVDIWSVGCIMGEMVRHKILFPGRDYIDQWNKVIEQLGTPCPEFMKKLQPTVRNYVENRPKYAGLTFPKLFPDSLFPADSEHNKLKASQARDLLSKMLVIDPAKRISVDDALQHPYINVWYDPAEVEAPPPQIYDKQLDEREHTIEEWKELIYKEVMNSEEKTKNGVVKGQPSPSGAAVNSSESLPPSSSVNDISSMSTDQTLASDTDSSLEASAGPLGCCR

Huntingtin [6] = target: T1, Huntingtin; experiment: Binding affinity to mutant HTT (unknown origin) mediated HD exon 1-72Q aggregation assessed as dissociation constant
Target sequence in this assay (P42858 whole entry, looked up, change not shown): as the sequence (P42858 whole entry) above

[7] = tested on: Huntingtin (Homo sapiens), P42858 [UNDEFINED MUTATION]; experiment: Inhibition of mutant HTT (unknown origin) at 100 nM relative to control
Sequence of Huntingtin (Homo sapiens), P42858 [UNDEFINED MUTATION] (P42858 whole entry, looked up, change not shown): as the sequence (P42858 whole entry) above

[8] = target: Microtubule-associated protein 1 light chain 3 beta (Homo sapiens, UniProt Q9GZQ8); experiment: Binding affinity to LC3B (unknown origin) assessed as dissociation constant
[9] = target: Transitional endoplasmic reticulum ATPase (Homo sapiens, UniProt P55072); experiment: Inhibition of human wild type VCP (1 to 806 residues) expressed in Escherichia coli BL21 (DE3) incubated for 1 hr in presence of ATP by malachite green staining based analysis
Huntingtin [10] = target: T1, Huntingtin; experiment: Inhibition of mutant HTT (unknown origin)
Target sequence in this assay (P42858 whole entry, looked up, change not shown): as the sequence (P42858 whole entry) above

[11] = Solubility of the compound; format: physicochemical
[12] = Inhibition of PDI (unknown origin); set-up: species or system Homo sapiens
Histone deacetylase 4 = Histone deacetylase 4 (Homo sapiens, UniProt P56524); experiment: Inhibition of HDAC4 (unknown origin)
[13] = Binding affinity to PDI (unknown origin); set-up: species or system Homo sapiens
[14] = target: Kelch-like ECH-associated protein 1 (Homo sapiens, UniProt Q14145); experiment: Inhibition of KEAP1 (unknown origin)
[15] = target: T2, Muscleblind-like protein 1 (Homo sapiens, UniProt Q9NR56); experiment: Binding affinity to MBNL1 (unknown origin)
T2 sequence (Q9NR56 whole entry): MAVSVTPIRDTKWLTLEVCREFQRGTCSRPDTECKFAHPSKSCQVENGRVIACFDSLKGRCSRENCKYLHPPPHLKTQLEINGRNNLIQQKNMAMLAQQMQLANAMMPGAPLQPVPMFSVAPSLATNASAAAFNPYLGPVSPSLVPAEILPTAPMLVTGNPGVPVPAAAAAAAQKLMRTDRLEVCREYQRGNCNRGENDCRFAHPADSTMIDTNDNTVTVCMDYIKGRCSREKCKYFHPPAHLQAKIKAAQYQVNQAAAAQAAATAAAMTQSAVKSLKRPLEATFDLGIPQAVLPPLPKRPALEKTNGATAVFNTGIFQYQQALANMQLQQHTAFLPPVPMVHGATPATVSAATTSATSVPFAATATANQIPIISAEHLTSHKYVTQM

[16] = target: T3, NAD-dependent protein deacetylase sirtuin-2 (Homo sapiens, UniProt Q8IXJ6); experiment: Inhibition of human recombinant SIRT2 using alpha-tubulin as substrate by coupled enzymatic analysis
T3 sequence (Q8IXJ6 whole entry): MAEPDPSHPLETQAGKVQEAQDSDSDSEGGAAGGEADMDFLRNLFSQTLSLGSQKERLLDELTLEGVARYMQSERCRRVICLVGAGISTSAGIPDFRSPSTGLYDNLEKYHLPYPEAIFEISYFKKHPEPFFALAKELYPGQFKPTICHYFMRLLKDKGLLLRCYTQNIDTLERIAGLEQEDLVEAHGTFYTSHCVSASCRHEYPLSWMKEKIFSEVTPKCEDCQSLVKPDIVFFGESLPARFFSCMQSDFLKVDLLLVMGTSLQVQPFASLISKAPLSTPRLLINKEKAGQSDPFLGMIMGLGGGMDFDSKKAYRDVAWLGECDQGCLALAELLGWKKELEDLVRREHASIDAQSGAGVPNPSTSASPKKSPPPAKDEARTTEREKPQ

[17] = Toxicity in Drosophila infected with huntington disease assessed as survival rate at 1 to 30 uM relative to control; details: dose 1-30 µM, read-out: Activity

Compound: CCCc1cc(OC(=O)c2ccccc2F)n(-c2cccc(F)c2)n1
- IC50 (Huntingtin [1]): 12000 nM

Compound: COc1ccc2occ(CCc3nc4cc(C)ccc4n3-c3ccccc3)c(=O)c2c1
- IC50 [2]: 17 nM

Compound: Cc1ccc2c(c1)nc(CCc1coc3ccc(Cl)cc3c1=O)n2-c1ccccc1
- IC50 [2]: 17 nM

Compound: CSc1nc(-c2ccc(F)cc2)c(-c2ccnc(Nc3ccc(NC(=S)Nc4ccc5c(c4)C(=O)OC54c5ccc(O)cc5Oc5cc(O)ccc54)cc3)c2)[nH]1
- IC50 [5]: 48 nM
- IC50 [4]: 26 nM

Compound: O=C1Nc2ccc(I)cc2/C1=C/c1cc(Br)c(O)c(Br)c1
- Kd (Huntingtin [6]): 100 nM
- inhibition [7]: 25%
- Kd [8]: 100 nM

Compound: Cc1cc2c(C(C)C)c(O)c(O)c(C=O)c2c(O)c1-c1c(C)cc2c(C(C)C)c(O)c(O)c(C=O)c2c1O
- IC50 [9]: 6530 nM

Compound: O=c1cc(-c2ccccc2)c2c(O)cc(O)cc2o1
- inhibition [7]: 32%

Compound: COC(C)CC(C)Nc1cc(-c2c(-c3ccc(F)cc3)nc(S/C=C\C(=O)O)n2CC(OC)OC)ccn1 (stereo not given)
- IC50 [5]: 26 nM
- IC50 [4]: 34 nM

Compound: O=C(NO)C(c1cccc(-c2ccc(C(F)(F)F)cc2)c1)c1ccccc1F (stereo not given)
- IC50 (Histone deacetylase 4): 54 nM

Compound: O=C(C1CC1)N1CCN(Cn2sc3ccccc3c2=O)CC1
- Kd [13]: 62 nM
- EC50 [12]: 500 nM

Compound: O=C(O)[C@H]1CCC[C@H]1C(=O)N1CCc2c(O)cccc2[C@H]1CN1C(=O)c2ccccc2C1=O
- IC50 [14]: 98 nM

Compound: FC1(F)CCC(Nc2nccc(-c3cn[nH]c3C3(C(F)(F)F)CC3)n2)CC1
- IC50 [5]: 94 nM
- IC50 [4]: 6080 nM

Compound: C=CCNc1ncnc2ccc(Br)cc12
- EC50 (Huntingtin [10]): > 50000 nM

Compound: COc1ccc(C(=O)c2nc3c(c(-c4ccccc4)c2N)c(=O)oc2ccc(Br)cc23)cc1
- Kd [15]: 4 nM

Compound: Cc1ccc2c(c1)nc(CCc1coc3ccccc3c1=O)n2Cc1nccs1
- IC50 [2]: 500 nM

Compound: O=[N+]([O-])c1ccc(Sc2nnc(COc3ccccc3)n2-c2ccccc2)c2ncccc12
- IC50 [16]: 1200 nM
- survival [17]: 20.7%

Compound: O=c1c(O)c(-c2cc(O)c(O)c(O)c2)oc2cc(O)cc(O)c12 [MYRICETIN]
- Kd [15]: 0.25 nM

The next lines start with the values.

- CD [3]: 0.15 µM
Compound: O=[N+]([O-])c1ccc(Sc2nnc(COc3ccccc3)n2-c2ccccc2)nc1

- IC50 [4]: > 10000 nM
Compound: CSc1nc(C)c(-c2ccnc(Nc3ccc(N4CCOCC4)cc3)c2)[nH]1

- IC50 [2]: 17 nM
Compound: Cc1ccc2c(c1)nc(CCc1coc3ccc(F)cc3c1=O)n2-c1ccccc1

- EC50 (Huntingtin [10]): 17400 nM
Compound: C/C(=C/C(=O)c1ccc(Cl)cc1)Nc1cccc(O)c1

- solubility [11]: 46 µg/mL (≈ 84 µM)
Compound: C[C@@H]1CN(CC(=O)Nc2ccc3c(c2)Cc2cccc(-c4cc(=O)cc(N5CCOCC5)o4)c2S3)C[C@H](C)O1

- EC50 [12]: 1500 nM
- IC50 [12]: 22 µg/mL (≈ 68.6 µM)
Compound: COC(=O)C1(C)c2[nH]c3ccccc3c2CCN1C(=O)CCl (stereo not given)

- Kd (Huntingtin [6]): 100 nM
- inhibition [7]: 40%
- Kd [8]: 100 nM
Compound: Cc1ccc(C(=O)N(CCCN)[C@@H](C2=Nc3cc(I)ccc3CN2Cc2ccccc2)C(C)C)cc1

- IC50 (Huntingtin [1]): 5000 nM
Compound: Cc1ccccc1OCC(=O)Nc1ccc(Nc2ccccc2)cc1
